{
  "source": "patent US20210220376A1",
  "about": "“ADDICTION TREATMENT OF AN ALCOHOL-CONSUMING PATIENT POPULATION” (Amygdala Neurosciences, Inc., priority 2018, published 2021)",
  "key": {"[1]": {"tested_on": "healthy male alcohol drinkers", "experiment": "Phase 1 study of compound (2) with ethanol: pharmacodynamics (mDEQ-5)", "type": "in vivo, human", "text": "The exploratory pharmacodynamic endpoints included maximum effect (Emax), maximum change from baseline (CFBmax), time to Emax (TEmax), and time-averaged area under the effect curve (TA_AUE), as applicable, derived from Modified 5-item Drug Effects Questionnaire (mDEQ-5) scores.\nmDEQ-5 scores were summarized by timepoint and treatment using descriptive statistics. Derived endpoints (Emax, CFBmax, TEmax, TA_AUE, as applicable) were summarized by treatment using descriptive statistics. For each mDEQ-5-derived endpoint, an analysis of variance (ANOVA) was conducted to compare each of active doses to placebo with dose group as a factor. Results were presented in terms of LSMEANS, treatment differences in LSMEANS, 95% CI and p-values.\nEthanol consumption and number of EtOH doses consumed (i.e., number of drinks) during the repeat EtOH administration sessions were summarized using descriptive statistics."}, "[2]": {"experiment": "Phase 1 study of compound (2) with ethanol: pharmacokinetics of compound (1) and breath alcohol", "conditions": "after repeated EtOH administration", "text": "Plasma concentrations of compound (1) and BrAC were summarized and listed by treatment, subject and timepoint. Pharmacokinetic parameters derived for compound (1) were also summarized and listed by treatment and subject. Pharmacokinetic parameters were estimated using a non-compartmental approach with a log-linear terminal phase assumption. The trapezoidal rule was used to estimate the area under the curve (linear trapezoidal linear interpolation) and the terminal phase will be estimated by maximizing the coefficient of determination estimated from the log-linear regression model. However, AUC0-∞, AUClast/∞, λz and t1/2 parameters were to be estimated for individual concentration-time profiles only when the terminal log-linear phase could be reliably characterized.\nProportionality analysis was done using a power model. The power model was defined as: […]\nA linear model with ln-transformed dose as a continuous effect was fitted. A point estimate and a 90% CI was derived for the slope (β). The parameter could be considered to be dose proportional if the 90% confidence interval of the slope β was within [1+ln(0.8)/ln(r), 1+ln(1.25)/ln(r)], where r=the highest dose studied/the lowest dose (Smith et al., “Confidence interval criteria for assessment of dose proportionality.” Pharm Res. 17 (10):1278-83 (2000))."}, "[3]": {"target": "T1, hMAO-A (Homo sapiens, UniProt P21397)", "T1 sequence (P21397 1-527)": "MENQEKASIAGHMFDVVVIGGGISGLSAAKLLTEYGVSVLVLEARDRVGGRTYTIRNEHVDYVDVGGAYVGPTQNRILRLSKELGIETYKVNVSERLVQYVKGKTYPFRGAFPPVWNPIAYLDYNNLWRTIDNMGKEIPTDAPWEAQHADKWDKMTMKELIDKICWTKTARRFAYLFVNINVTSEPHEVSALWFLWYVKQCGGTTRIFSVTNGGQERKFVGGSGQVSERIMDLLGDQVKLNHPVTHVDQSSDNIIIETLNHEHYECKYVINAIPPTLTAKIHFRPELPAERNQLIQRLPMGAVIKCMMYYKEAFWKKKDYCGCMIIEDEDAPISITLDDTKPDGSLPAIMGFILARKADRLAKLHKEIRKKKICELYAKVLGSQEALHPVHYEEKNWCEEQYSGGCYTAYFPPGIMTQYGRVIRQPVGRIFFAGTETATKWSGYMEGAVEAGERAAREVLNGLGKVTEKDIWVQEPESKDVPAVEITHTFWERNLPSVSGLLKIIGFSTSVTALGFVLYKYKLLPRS", "conditions": "read-out: IC50 hMAO-A; cited from earlier work"}},
  "note": "pIC50: −log10 of the molar value.",
  "data": [
    {"smiles": "O=C(NCc1ccc(-c2ccn(COP(=O)(O)O)c(=O)c2)cc1)c1c(Cl)cccc1Cl", "note": "[Compound (2), phosphoric acid mono-(4-{4-[(2,6-dichloro-benzoylamino)-methyl]-phenyl}-2-oxo-2H-pyridin-1-ylmethyl) ester]", "values": [
      {"measurement": "dose response on pharmacodynamic measures", "setting": "[1]; 25-600 mg", "value": "did not show a consistent dose response"},
      {"measurement": "peak VAS scores: feeling any alcohol effects, feeling drunk, liking the effects of alcohol", "setting": "[1]; all dose levels vs placebo", "value": "Peak scores for placebo were higher than scores for all compound (2) dose levels"},
      {"measurement": "peak breath alcohol concentrations compared with placebo", "setting": "[2]", "value": "slightly higher"},
      {"measurement": "pIC50", "setting": "[3]", "value": "< 3.89"}
    ]}
  ]
}
